The results in this text go back to ChEMBL document CHEMBL3507680, “University of Dundee, Gates Library screen for HepG2 cell viability”.

This series is described as follows: Human HepG2 cell viability assay in 384 well format. Type of series: toxicity, cell-based. On the set-up: dose 125 nL, time 70.5 hour; concentration not given beside the values. To be noted: HepG2 cells, read-out: Inhibition.
On to `CN(C)c1nccc(CNS(=O)(=O)c2cc(Cl)cc(Cl)c2)n1`, for which the cytotoxicity at 70.5 h is -1.35%.

Consider `OCC(O)CSCc1cc(Cl)ccc1Cl` (centres undefined), for which the cytotoxicity at 70.5 h was -3.91%. The value for `OCC(O)CSCc1ccc(F)cc1Cl` (centres undefined) was 19.6%. Under `CCN(Cc1cccc(NC(=O)COCCOC)c1)C(C)=O` stands 1.86%; under `COc1ccccc1N1CCC(CNC(=O)N(C)Cc2ccco2)C1` (centres undefined), -3.56%; under `CN(CCCc1cc(-c2ccc(F)cc2)n[nH]1)C(=O)CCn1cncn1`, 1.64%. Turning to `CN(CCCc1cc(-c2ccccc2)n[nH]1)C(=O)CCCn1cncn1`, the cytotoxicity at 70.5 h was -6.04%. The value for `COc1cc(F)c(S(=O)(=O)NCc2ccnc(N(C)C)n2)cc1OC` was -8.38%. Under `Cc1cccc(CNCC2COC3(CCCC3)O2)c1C` (centres undefined) stands 3.58%; under `O=C(NCc1cccnc1N1CCCCC1)c1ccc2cc[nH]c2c1`, -15.2%. The value for `O=C(NCc1ccc(Br)c(F)c1)Nc1cn[nH]c1` was -22.7%.

On to `Cc1noc(C)c1CN1CCCC1c1nnc2ccccn12` (centres undefined), for which the cytotoxicity at 70.5 h is -23.7%. For `Cc1ccc(CNC(=O)NCc2ccco2)s1`, the cytotoxicity at 70.5 h was -24.6%. With `CCS(=O)(=O)N1CCN(C(C)c2ncc(-c3ccccc3)o2)CC1` (centres undefined), the cytotoxicity at 70.5 h is -19.2%. As for `CC(O)CN1CCN(C(=O)CCOc2ccccc2F)CC1` (centres undefined), the cytotoxicity at 70.5 h is -17.1%. As to `CCn1c(C2CCCN2Cc2noc(C(C)(C)C)n2)nc2ccccc21` (centres undefined), the cytotoxicity at 70.5 h was -26.2%. The value for `Cc1ncsc1C(=O)OCCN1CCCCCC1=O` was -8.25%.

On to `Cc1nc(COc2ccc(S(=O)(=O)N(C)C)cc2)sc1C`, for which the cytotoxicity at 70.5 h was -24.1%. Under `Cc1nnc(-c2cccc(C#N)c2)n1C1CCN(C(C)C)C1=O` (centres undefined) stands -11.3%; under `CN(Cc1ccncc1)c1cncc(Br)c1`, -14.6%; under `CN(Cc1ccc([S+](C)[O-])cc1)c1cncc(Br)c1` (centres undefined), -23.7%. Under `Cc1cc(C(=O)NCC(=O)N2CCOCC2)nn1C(C)(C)C` stands -17.2%; under `Cn1ncnc1NCc1ccc(Br)cc1`, -5.73%. Take `CC(CNC(=O)c1cnc[nH]1)Oc1ccccc1Br` (centres undefined): the cytotoxicity at 70.5 h is -15.7%.

On to `CCCN(CCc1ccccn1)C(=O)Cn1cc(C)cn1`, for which the cytotoxicity at 70.5 h is -4.61%. The value for `COc1ccc(C(C)N2CCC(CO)CC2)cc1Cl` (centres undefined) was -2.59%; that for `COc1ccc(C(C)N2CCC(OC)CC2)cc1Cl` (centres undefined) was -5.66%. Under `CC(c1ccc(F)c(F)c1)N(C)CCS(=O)(=O)CCC(N)=O` (centres undefined) stands -9.48%. Under `OCc1ccc(N2CCN(c3ncccn3)CC2)c(F)c1` stands -5.65%; under `NCc1ccc(N2CCN(c3ncccn3)CC2)c(F)c1`, 6.72%. As for `CCOCCCC(=O)Nc1cc(C(N)=O)ccc1N1CCCCC1`, the cytotoxicity at 70.5 h was -9.3%. As for `O=C(c1ccc2c(c1)[nH]c(=O)n2C1CCCC1)N1CCSCC1`, the cytotoxicity at 70.5 h was -4.63%.

`O=C(CNc1cccc(S(=O)(=O)C(F)F)c1)NCc1ccco1`: the cytotoxicity at 70.5 h came out at 11.3%. Under `O=C(Nc1ccncc1)NC1CCN(c2ccccc2Cl)C1=O` (centres undefined) stands -5.27%. The value for `CN(CCNS(C)(=O)=O)C(=O)c1ccc(Cl)c(Cl)c1` was -6.01%; that for `COc1cccc(C(=O)N2CCN(CC(O)c3ccccc3)CC2)c1` (centres undefined) was -9.4%.

As for `CC(C)(C)[S+]([O-])CCNC(=O)c1cccc2ncccc12` (centres undefined), the cytotoxicity at 70.5 h was -8.58%.

Turning to `O=C(CNc1cccc(CC(F)(F)F)c1)NCc1ccco1`, the cytotoxicity at 70.5 h was -4.32%. Under `CN(C)CCCN(CCC#N)C(=O)Nc1ccc2[nH]ccc2c1` stands -4.34%. The value for `COCCC(=O)Nc1nccn1Cc1ccc(Br)cc1` was -0.141%; that for `CSCC(=O)Nc1nccn1Cc1ccc(Br)cc1` was -3.91%. The value for `O=C(c1ccc2c(c1)[nH]c(=O)n2C1CCCC1)N1CC(O)C1` was -3.54%. In the case of `CN1CCN(C(=O)c2ccc3c(c2)[nH]c(=O)n3C2CCCC2)CC1`, the cytotoxicity at 70.5 h is 9.54%.

Turning to `Cc1ccc(C(=O)N(C)CCNS(C)(=O)=O)cc1Br`, the cytotoxicity at 70.5 h was -5.18%. On to `COc1cccc(CC2CCCN2CCCC#N)c1` (centres undefined), for which the cytotoxicity at 70.5 h was -1.21%. The value for `CN(CC1CCN(CCO)CC1)CC(O)c1ccc(F)cc1` (centres undefined) was -5.05%; that for `Cn1cc(CCCN2CCN(Cc3cccc(O)c3)CC2)cn1` was -3.39%; that for `CN(CC1CCN(CCO)CC1)CC(O)c1ccc(F)cc1F` (centres undefined) was -3.94%. The value for `CC(c1cccc(Cl)c1)N(C)CCS(=O)(=O)CCC(N)=O` (centres undefined) was -0.172%.

Consider `Cc1nc(C)n(Cc2cccc(NC(=O)NC(C)(CO)C3CC3)c2)n1` (centres undefined), for which the cytotoxicity at 70.5 h was -6.87%. The value for `CS(=O)(=O)c1cccc(C(=O)NCC2(c3ccccc3)CC2)c1` was -11.2%; that for `N#Cc1ccc(N2CCCN(CC(N)=O)CC2)cc1` was -9.42%; that for `COCCN1CCC(CNC(=O)C2(S(C)(=O)=O)CCCC2)CC1` was -3.79%.

For `Cn1c(=O)ccn(CC(=O)N2CCCC(n3cccn3)C2)c1=O` (centres undefined), the cytotoxicity at 70.5 h was -9.63%. On to `Cc1cc(C)n(C2CCCN(C(=O)Cn3ccc(=O)n(C)c3=O)C2)n1` (centres undefined), for which the cytotoxicity at 70.5 h was -7.57%.

Regarding `COCC(C)NS(=O)(=O)c1ccc(Br)cn1` (centres undefined), the cytotoxicity at 70.5 h was -11.1%. The value for `Cc1ccccc1-c1cc(NC(=O)Cn2ccccc2=O)n(C)n1` was -0.508%; that for `CCC(CCO)NS(=O)(=O)c1ccc(Br)cn1` (centres undefined) was -0.693%; that for `Cc1csc(C2(NCc3nc(-c4ccco4)oc3C)CCCC2)n1` was 22.8%. Take `C[C@H](CCO)NS(=O)(=O)c1ccc(Br)cn1`: the cytotoxicity at 70.5 h is -6.95%. The value for `Cn1cc(N2CCC(Nc3ccc4nccnc4n3)C2=O)cn1` (centres undefined) was -10.5%. Under `O=C(c1ncoc1-c1ccco1)N1CCCN(c2nccs2)CC1` stands -2.69%; under `CCCC1(CNCc2ncc[nH]2)CCC1`, -8.95%.

As to `Cc1ccc(-c2nc(CN(Cc3cccs3)C3CCS(=O)(=O)C3)cs2)o1` (centres undefined), the cytotoxicity at 70.5 h amounted to 13.7%. Turning to `CC(NCCCc1cnn(C)c1)c1ccc(Br)s1` (centres undefined), the cytotoxicity at 70.5 h was -1.02%.

In the case of `CCN1C[C@H]2N(c3ncccn3)CCC[C@@]2(C(=O)NCC2CC2)C1`, the cytotoxicity at 70.5 h amounted to 0.391%. The value for `CO[C@H]1CO[C@@]2(CCCN(C(=O)C3CC=CC3)C2)C1` was -0.276%; that for `Cc1nccc(NCc2cncc3c2CCN(CCN(C)C)C3)n1` was 3.96%; that for `CO[C@@H]1CO[C@@]2(CCCN(C(=O)N3CCCC3)C2)C1` was 0.448%. The value for `O=C(c1ccccc1)N1CCO[C@@H]2CN(Cc3ccc[nH]3)C[C@@H]2C1` was 1.61%.

Regarding `CC(C)n1c2ccccc2c2c1cc(C(=O)NC1CC1)n2C(=O)N(C)C`, the cytotoxicity at 70.5 h came to 1.81%. Under `CC(=O)N1CCc2nc(-c3ccc(F)cc3)nc(NC(C)C)c2CC1` stands 7.5%. Under `COCC(=O)N1CCc2nc(C)nc(NC(C)C)c2CC1` stands -6.06%; under `Cc1nc2c(c(NC(C)C)n1)CCN(C(=O)CCO)CC2`, -14.4%. The value for `CC(=O)N1CCO[C@@H]2CN(S(=O)(=O)C3CC3)CC[C@@H]2C1` was -0.0787%. For the compound `O=C(c1ccnn1-c1ccc2ccccn12)N1CCCC1`, the cytotoxicity at 70.5 h was -10.6%.

For `CS(=O)(=O)N1C[C@@H]2COC[C@]2(COCC(=O)N2CCCC2)C1`, the cytotoxicity at 70.5 h is -5.68%.

Turning to `O=C(c1ccnn1-c1ccc2ccccn12)N1CCOCC1`, the cytotoxicity at 70.5 h is -3.59%.

As to `O=C(NC1CC2(CCN(CCO)CC2)Oc2ccccc21)c1csnn1` (centres undefined), the cytotoxicity at 70.5 h was -0.338%. In the case of `Cn1nc(C#N)c2c1CN(C(=O)c1nc[nH]n1)CCC2`, the cytotoxicity at 70.5 h was -1.6%.

On to `CC(C)NC(=O)[C@@H]1C[C@H]2NCC[C@H]2O1`, for which the cytotoxicity at 70.5 h was -7.3%. Under `CNC(=O)NCC1CCC2(CCN(C(=O)c3ccccn3)CC2)CO1` (centres undefined) stands 1.5%. Consider `O=C(c1ccc[nH]1)N1CCCn2c(CNC3CCC3)nnc2C1`, for which the cytotoxicity at 70.5 h is -4.17%. With `CC(C)N1CCO[C@@H]2CN(C(=O)NCc3ccccc3)CC[C@@H]2C1`, the cytotoxicity at 70.5 h was determined as 28.5%. The value for `O=C(c1ccco1)N1CCC2(CCCN(c3ncccn3)C2)C1` (centres undefined) was 11%; that for `Cc1occc1C(=O)N1CCC2(CCCN(c3ncc(F)cn3)C2)C1` (centres undefined) was -1.51%; that for `Cc1ccc(C(=O)N2CCC3(CCCN(c4ncc(F)cn4)C3)C2)cn1` (centres undefined) was -5.14%.

For the compound `CCOCCN1C[C@@H]2CCCO[C@@H]2[C@H](NC(=O)c2cnoc2C)C1`, the cytotoxicity at 70.5 h is -6.18%. Under `C1CC(N2C[C@@H]3COC[C@]3(COCC3CCOCC3)C2)C1` stands -1.94%; under `Cc1oncc1C(=O)N[C@@H]1CN(Cc2ccoc2)C[C@@H]2CCCO[C@@H]21`, 2.7%; under `Cc1cnc(CNC(=O)[C@@]23CCO[C@@H]2CCNC3)cn1`, 0.0687%.

On to `Cc1oncc1C(=O)N[C@@H]1CN(CC2CC2)C[C@@H]2CCCO[C@@H]21`, for which the cytotoxicity at 70.5 h is -10.1%. The value for `CN(C)C1CC2(CCN(C(=O)NC3CC3)CC2)c2ccccc21` (centres undefined) was -7.23%; that for `Cc1noc([C@@H]2C[C@H]3CN(Cc4ccc5c(c4)OCO5)C[C@H]3O2)n1` was -16.8%. Under `NCC1CCC2(CCN(C(=O)c3ccccn3)CC2)CO1` (centres undefined) stands 2.02%. The value for `CNC(=O)CN1CCC2(CCCN(CC3CCOC3)C2)CC1` (centres undefined) was -6.27%; that for `COCCN1C[C@@H]2CN(Cc3ccc(C)s3)CCC[C@]2(C(=O)O)C1` was 11.4%; that for `Cc1ccc(CN2CCOC3(CCN(CC4CCOC4)CC3)C2)cc1` (centres undefined) was -1.57%.

With `O=C(NCc1ccccn1)[C@@]12CCO[C@@H]1CCN(Cc1ccccn1)C2`, the cytotoxicity at 70.5 h was -5.8%.
